Measured values published in publication PMC6831561, “Pharmacological and Behavioral Effects of the Synthetic Cannabinoid AKB48 in Rats” (Frontiers in Neuroscience, 2019).

Assays:
Assay type in all cases: in vivo
[1] = tested on: rats; experiment: Visual object response test
Excerpt: (§1) Visual response was verified by two behavioral tests that evaluated the ability of the rat to capture visual information even when stationary (the visual object response) or when moving (the visual placing response). The visual object response test was used to evaluate the ability of the rat to see an object approaching from the front or the side, inducing the animal to shift or turn its head or to retreat (modified from [Ossato et al., 2015]; [Marti et al., 2019]). For the frontal visual response, a white horizontal bar was moved frontally to the rat’s head; the maneuver was repeated three times. For the lateral visual response, a small dentist’s mirror was moved into the rat’s field of view in a horizontal arc until the stimulus was between the rat’s eyes. The procedure was conducted bilaterally and was repeated three times. The score assigned was a value of 1 if there was a reflection in the rat movement or 0 if not. The total value was calculated by adding the scores obtained in the frontal with that obtained in the lateral visual object response (overall score 9). Evaluation of the visual object response was measured at 0, 10, 30, 60, 120, and 180 min post-injection. The visual placing response test was performed using a tail suspension-modified apparatus able to bring the rat toward the floor at a constant speed of 10 cm/sec (modified from [Ossato et al., 2015]; [Marti et al., 2019]). The downward movement of the rat was videotaped. Frame-by-frame analysis allowed us to evaluate the beginning of the reaction of the rat while it was close to the floor. When the rat started the reaction, an electronic ruler evaluated the perpendicular distance in millimeters between the eyes of the rat to the floor. The naïve rats perceived the floor and prepared for contact at a distance of about 27 ± 4.5 mm. Evaluation of the visual placing response was measured at 0, 15, 35, 65, 125, and 190 min post-injection.

[2] = tested on: rats; experiment: Visual placing response test
Excerpt: as §1

[3] = tested on: rats; experiment: Acoustic response test
Experimental: Acoustic response measures the reflex of the rat in reply to an acoustic stimulus produced behind the animal. Four acoustic stimuli of different intensities and frequencies were tested (see [Marti et al., 2019]). Each sound test was repeated three times, giving a value of 1 if there was a response and 0 if not present, for a total score of 3 for each sound. The acoustic total score was calculated by adding scores obtained in the four tests (overall score 12). Evaluation of the […] was measured at 0, 10, 30, 60, 120, and 180 min post-injection.

[4] = tested on: rats; experiment: Overall tactile response (vibrissae, pinna, corneal reflexes)
Experimental: Tactile responses were verified through vibrissae, pinna, and corneal reflexes ([Marti et al., 2019]), and data were expressed as the sum of these parameters. The vibrissae reflex was evaluated by touching the vibrissae (right and left) with a thin hypodermic needle once per side, giving a value of 1 if there was a reflex (turning of the head to the side of touch or vibrissae movement) or 0 if not present (overall score 2). Evaluation of the vibrissae reflex was measured at 0, 10, 30, 60, 120, and 180 min post-injection. The pinna reflex was assessed by touching the pavilions (left and right) with a thin hypodermic needle, the interior pavilions first. This test was repeated twice per side, giving a value of 1 if there was a reflex and 0 if not present (overall score 4). Evaluation of the pinna reflex was measured at 0, 10, 30, 60, 120, and 180 min post-injection. The corneal reflex was assessed by gently touching the cornea with a thin hypodermic needle and evaluating the response, assigning a value of 1 if the rat moved only its head, 2 if it only closed its eyelid, and 3 if it closed its lid and moved its head. The procedure was conducted bilaterally (overall score 6) and was measured at 0, 10, 30, 60, 120, and 180 min post-injection.

[5] = tested on: rats; experiment: Tail pinch test (acute mechanical nociception)
Experimental: Acute mechanical nociception was evaluated using the tail pinch tests (modified by [Vigolo et al., 2015]). A special rigid probe connected to a digital dynamometer (ZP-50N, IMADA, Japan) was gently placed on the tail (in the distal portion), and progressive pressure was applied. When the rat flicked its tail, the pressure was stopped, and the digital instrument saved the maximum peak of weight supported (g/force). A cut-off (500 g/force) was set to avoid tissue damage. The test was repeated three times, and the final value was calculated with the average of three obtained scores. Acute mechanical nociception was measured at 0, 20, 40, 70, 140, and 195 min post-injection.

[6] = tested on: rats; experiment: Bar test (catalepsy)
Experimental: In the bar test, the rat’s forelimbs were placed on a bar made of plastic (height 6 cm). The time spent on the bar was measured (immobility cut-off: 20 sec), and akinesia was calculated as the total time spent on the bar after three consecutive trials (total maximal time of catalepsy: 60 s; [De Luca et al., 2015]; [Canazza et al., 2016]). The bar test was performed at 0, 20, 40, 70, 140, and 195 min post-injection.

[7] = tested on: rats; experiment: Startle and pre-pulse inhibition
Experimental: As previously reported ([Marti et al., 2019]), rats were tested for acoustic startle reactivity in startle chambers (Ugo Basile apparatus, Milan, Italy) consisting of a sound-attenuated, lighted, and ventilated enclosure holding a transparent non-restrictive Perspex® cage (modified version for rats 200 × 90 × 80 mm). A loudspeaker mounted laterally by the holder produced all acoustic stimuli. Peaks and amplitudes of the startle response were detected by a load cell. At the onset of the startling stimulus, 300 ms readings were recorded, and the wave amplitude evoked by the movement of the rat startle response was measured. Acoustic startle test sessions consisted of startle trials (pulse-alone) and pre-pulse trials (pre-pulse + pulse). The pulse-alone trial consisted of a 40 ms 120 dB pulse. Pre-pulse + pulse trial sequences consisted of a 20 ms acoustic pre-pulse, 80 ms delay, and then a 40 ms, 120 dB startle pulse (100 ms onset–onset). There was an average of 15 s (range = from 9 to 21 s) between the trials. Each startle session began with a 10 min acclimation period with a 65 dB broadband white noise that was present continuously throughout the session. The test session contained 40 trials composed by pulse-alone and pre-pulse + pulse trials (with three different pre-pulses of 68, 75, and 85 dB) presented in a pseudorandomized order. Rats were placed in the startle chambers 5 min after treatment with AKB48. The entire startle/PPI test lasted 20 min. The pre-pulse inhibition (PPI) was expressed as the percentage decrease in the amplitude of the startle reactivity caused by the presentation of the pre-pulse. AKB48 (0.1–3 mg/kg i.p.) was administered intraperitoneally, and startle/PPI responses were recorded 15 min (including the 10 min acclimation period) after drug injections.

[8] = AKB48, only at the highest dose (3 mg/kg i.p.)
[9] = AKB48 highest dose (3 mg/kg i.p.)
[10] = AKB48 0.1–3 mg/kg i.p., 15 min after treatment
[11] = AM251 1 mg/kg i.p. before AKB48 3 mg/kg i.p.
[12] = AM251 1 mg/kg i.p. before AKB48 3 mg/kg
[13] = AM251 1 mg/kg i.p. alone (data not shown)

CCCCCn1nc(C(=O)NC23CC4CC(CC(C4)C2)C3)c2ccccc21 [AKB48, N-(1-adamantyl)-1-pentyl-1H-indazole-3-carboxamide]
persistence of the reduction of visual object response ([1]; AKB48 0.3 mg/kg i.p.): transient | visual object response ([1]; AKB48 0.1–3.0 mg/kg i.p., 180 min observation): dose-dependently reduced | persistence of the reduction of visual object response ([1]; AKB48 0.5 and 3.0 mg/kg i.p.): up to 180 min | persistence of the reduction of visual placing response ([2]; AKB48 3 mg/kg i.p.): up to 190 min | visual placing response ([2]; AKB48 0.1–3 mg/kg i.p., 190 min observation): reduced | acoustic response [3, 8]: reduced | persistence of the reduction of acoustic response [3, 9]: up to 120 min | reduction of overall tactile response [4, 8]: ~23% | persistence of the reduction of tactile response [4, 9]: up to 60 min | threshold to acute mechanical pain stimulus (tail pinch test) ([5]; AKB48 0.1–3 mg/kg i.p.): slightly increased | time spent on the bar ([6]; AKB48 0.1–3 mg/kg i.p.): slightly increased | PPI at 68 dB of pre-pulse intensity [7, 10]: inhibited | PPI at 75 dB of pre-pulse intensity [7, 10]: inhibited | inhibition at 3 mg/kg ([7]; Rattus norvegicus, 0.25 h, AKB48 3 mg/kg, 15 min after administration, read-out: inhibition of startle amplitude): ~50%

Cc1c(C(=O)NN2CCCCC2)nn(-c2ccc(Cl)cc2Cl)c1-c1ccc(I)cc1 [AM251, 1-(2,4-dichlorophenyl)-5-(4-iodophenyl)-4-methyl-N-(piperidin-1-yl)-1H-pyrazole-3-carboxamide, reference compound]
visual object response, AM251 alone ([1]; AM251 1 mg/kg i.p. alone): did not alter | inhibition of visual object response induced by AKB48, after AM251 pre-treatment [1, 11]: prevented | visual placing response, AM251 alone ([2]; AM251 1 mg/kg i.p. alone): did not alter | visual impairment (placing) induced by AKB48, after AM251 pre-treatment [2, 12]: prevented | acoustic response, AM251 alone [3, 13]: did not alter | inhibition of acoustic response induced by AKB48, after AM251 pre-treatment [3, 11]: prevented | response to AM251 alone in the tactile response section [4, 13]: did not alter | inhibition of overall tactile response induced by AKB48, after AM251 pre-treatment [4, 11]: prevented | threshold to acute mechanical pain stimuli, AM251 alone ([5]; AM251 1 mg/kg i.p. alone): did not alter | AKB48 effect on mechanical pain threshold, after AM251 pre-treatment [5, 12]: prevented | catalepsy, AM251 alone ([6]; AM251 1 mg/kg i.p. alone): did not induce catalepsy | AKB48 effect on time spent on the bar, after AM251 pre-treatment [6, 12]: prevented | inhibitory effect of AKB48 on PPI at 68 dB, with AM251 ([7]; AM251 1 mg/kg i.p. + AKB48): prevented | inhibitory effect of AKB48 on PPI at 75 dB, with AM251 ([7]; AM251 1 mg/kg i.p. + AKB48): prevented | inhibitory effect of AKB48 on startle, with AM251 ([7]; AM251 1 mg/kg i.p. + AKB48): prevented | startle response, AM251 alone ([7]; AM251 1 mg/kg i.p. alone): did not modify
